From article PMC5453931, “Cathelicidin-trypsin inhibitor loop conjugate represents a promising antibiotic candidate with protease stability” (Scientific Reports, 2017)
Values after ≈ are worked out from the molar mass of the structure shown. Where a SMILES comes first, the peptide text is derived from it.

Columns and labels:
[1] = test system: B. subtilis; assay type: cell-based; conditions: 18 h
Procedure, shortened: (§1)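 Cultures are brought to exponential phase at 37 °C in Mueller-Hinton medium and adjusted to 10^6 CFU/mL. This suspension is added in equal volume to two-fold peptide series and incubated, slowly shaken, for 18 h. Absorbance at 595 nm gives the no-growth MIC, reported as the mean of triplicate experiments.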

[2] = test system: C. albican; assay type: cell-based; conditions: 18 h
Procedure, shortened: as §1

[3] = test system: E. coli 08040726; assay type: cell-based; conditions: 08040726, 18 h
Procedure, shortened: as §1

[4] = test system: E. coli; assay type: cell-based; conditions: 18 h
Procedure, shortened: as §1

[5] = test system: P. aeruginosa; assay type: cell-based; conditions: 18 h
Procedure, shortened: as §1

[6] = test system: P. mirabilis; assay type: cell-based; conditions: 18 h
Procedure, shortened: as §1

[7] = test system: S. aureus; assay type: cell-based; conditions: 18 h
Procedure, shortened: as §1

[8] = test system: S. dysenteria; assay type: cell-based; conditions: two-fold broth microdilution, MH broth, 37 °C, 18 h, A595; mean of three independent experiments in duplicate
Procedure, shortened: as §1

[9] = test system: Aeromonas veronii; test: microbe, parasite or virus in culture; assay type: cell-based; conditions: 18 h
Procedure, shortened: as §1

[10] = test system: Bacillus subtilis 08042313; test: microbe, parasite or virus in culture; assay type: cell-based; conditions: 08042313, 18 h
Procedure, shortened: as §1

[11] = test system: Candida albicans 08030102; test: microbe, parasite or virus in culture; assay type: cell-based; conditions: 08030102, 18 h
Procedure, shortened: as §1

[12] = test system: E. Coli 08032823; test: microbe, parasite or virus in culture; assay type: cell-based; conditions: 08032823, 18 h
Procedure, shortened: as §1

[13] = test system: Enterococcus faecium 08052315; test: microbe, parasite or virus in culture; assay type: cell-based; conditions: 08052315, 18 h
Procedure, shortened: as §1

[14] = test system: Escherichia coli ATCC25922; test: microbe, parasite or virus in culture; assay type: cell-based; conditions: ATCC25922, 18 h
Procedure, shortened: as §1

[15] = test system: K. Pneumoniae 08031012; test: microbe, parasite or virus in culture; assay type: cell-based; conditions: 08031012, 18 h
Procedure, shortened: as §1

[16] = test system: K. Pneumoniae 08040202; test: microbe, parasite or virus in culture; assay type: cell-based; conditions: 08040202, 18 h
Procedure, shortened: as §1

[17] = test system: Nocardia asteroides 08052412; test: microbe, parasite or virus in culture; assay type: cell-based; conditions: 18 h
Procedure, shortened: as §1

[18] = test system: P. Aeruginosa 08021015; test: microbe, parasite or virus in culture; assay type: cell-based; conditions: 08021015, 18 h
Procedure, shortened: as §1

[19] = test system: Proteus mirabilis 1376; test: microbe, parasite or virus in culture; assay type: cell-based; conditions: 1376, 18 h
Procedure, shortened: as §1

[20] = test system: S. Aureus 08032615; test: microbe, parasite or virus in culture; assay type: cell-based; conditions: 08032615, 18 h
Procedure, shortened: as §1

[21] = test system: S. Aureus 08032706; test: microbe, parasite or virus in culture; assay type: cell-based; conditions: 08032706, 18 h
Procedure, shortened: as §1

[22] = test system: S. Aureus 08032810; test: microbe, parasite or virus in culture; assay type: cell-based; conditions: 08032810, 18 h
Procedure, shortened: as §1

[23] = test system: S. Maltophilia 090223; test: microbe, parasite or virus in culture; assay type: cell-based; conditions: 090223, 18 h
Procedure, shortened: as §1

[24] = test system: Shigella dysenteriae 0804203; test: microbe, parasite or virus in culture; assay type: cell-based; conditions: Gram-negative; two-fold broth microdilution, MH broth, 37 °C, 18 h; mean of three independent experiments in duplicates
Procedure, shortened: as §1

[25] = test system: Vibrio harveyi; test: microbe, parasite or virus in culture; assay type: cell-based; conditions: 18 h
Procedure, shortened: as §1

[26] = test system: trypsin; test: Protease stability, RP-HPLC analysis of degradation; assay type: in vitro ADME; conditions: trypsin, 300:1, 0.1 M NH4HCO3 pH 8.2, 37 °C, 6 h; RP-HPLC; Fig. 4
Protocol: To further examine the stability of TIH3F incubated with enzymes (trypsin and protease K) over time, the LC analysis of peptide degradation over a series of time spans (0, 6, 12, 24 h) was performed. TIH3F and protease solution were prepared in 0.1 M NH4HCO3 buffer (pH 8.2) to final molar ratio of 300:1, and incubated at 37 °C for 6, 12, and 24 h, respectively. Then 150 μL aliquots were taken at given time intervals, diluted with 150 μL of water/acetonitrile (60/40 v/v) containing 2% TFA, and analyzed by RP-HPLC (Thermo Scientific Syncronis C18 column, 250 mm × 4.6 mm, 5 μm), eluted with acetonitrile/water (containing 0.1% TFA) mixture of linear gradient concentration.

[27] = 20% fresh human serum, 37 °C, colonies surviving 1 × MIC, Fig. 3B
[28] = test system: trypsin or proteinase K; conditions: peptide:protease 300/1 mol/mol, 30 min, 37 °C, then 1 × MIC 2 h with E. coli, S. aureus, C. albicans; colony counting; Fig. 3E
[29] = test system: C. albicans biofilm formation; test: Biofilm inhibition assay (XTT); assay type: cell-based; conditions: Candida albicans, 4 μg/mL, 36 h, 35 °C, Fig. 2A
Protocol: TIH3F that has the best antifungal activity among the four peptides was chosen to examine the effect on the C. albicans biofilm formation and the established biofilm using previously described method with minor modifications. In the biofilm inhibition assay, after the incubation at 35 °C, C. Albicans was diluted to 1 × 10^6 CFU/mL in RPMI-1640 medium. Then 2 mL culture was added to each well of 6-well plates with coverslips at the bottom, and incubated at 35 °C in a humid chamber for 3 h. Non-adherent cells were then washed away by PBS, and series concentrations of TIH3F (0, 1, 2, 4 μg/mL) were added into the plate, with amphotericin B as control. The formation of the biofilm was determined by the XTT Cell Proliferation and Cytotoxicity Kit (KeyGEN BioTECH, Nanjing, China) after 36-h incubation. In the biofilm disruption assay, the biofilm was preformed as described above but with a longer incubation time up to 72 h. Then TIH3F and amphotericin B of series concentrations (0, 2.5, 5, 10, 25, 50 μg/mL) was added after non-adherent cells were washed out. The measurement of remaining biofilm was then determined. […] After washing with PBS, the plate was immediately photographed with fluorescence microscope.

[30] = test system: established C. albicans biofilm; test: Biofilm disruption assay, established biofilm (XTT, PI/SYBR Green I); assay type: cell-based; conditions: 5 μg/mL, biofilm preformed 72 h, XTT metabolic activity; Fig. 2B
Protocol: TIH3F that has the best antifungal activity among the four peptides was chosen to examine the effect on the C. albicans biofilm formation and the established biofilm using previously described method with minor modifications. In the biofilm inhibition assay, after the incubation at 35 °C, C. Albicans was diluted to 1 × 10^6 CFU/mL in RPMI-1640 medium. Then 2 mL culture was added to each well of 6-well plates with coverslips at the bottom, and incubated at 35 °C in a humid chamber for 3 h. Non-adherent cells were then washed away by PBS, and series concentrations of TIH3F (0, 1, 2, 4 μg/mL) were added into the plate, with amphotericin B as control. The formation of the biofilm was determined by the XTT Cell Proliferation and Cytotoxicity Kit (KeyGEN BioTECH, Nanjing, China) after 36-h incubation. In the biofilm disruption assay, the biofilm was preformed as described above but with a longer incubation time up to 72 h. Then TIH3F and amphotericin B of series concentrations (0, 2.5, 5, 10, 25, 50 μg/mL) was added after non-adherent cells were washed out. The measurement of remaining biofilm was then determined. In order to further confirm the antifungal effect of TIH3F against C. albicans encased in biofilms, the established biofilm was treated with TIH3F (0, 5, 50 μg/mL), washed three times with PBS, and finally stained with 1 mL 1000-fold diluted PI/SYBR Green I at 30 °C in the dark for 20 min. After washing with PBS, the plate was immediately photographed with fluorescence microscope.

CC(C)C[C@H](NC(=O)[C@H](CCCNC(=N)N)NC(=O)[C@H](CCCCN)NC(=O)[C@H](Cc1ccccc1)NC(=O)[C@H](Cc1ccccc1)NC(=O)[C@@H](N)CCCCN)C(=O)N[C@@H](CC(C)C)C(=O)N[C@@H](CCCCN)C(=O)N[C@@H](CO)C(=O)N[C@H](C(=O)N[C@@H](CCCNC(=N)N)C(=O)N[C@@H](CCCNC(=N)N)C(=O)N[C@@H](C)C(=O)N[C@H](C(=O)N[C@@H](CCCCN)C(=O)N[C@@H](CCCCN)C(=O)N[C@@H](Cc1ccccc1)C(N)=O)C(C)C)C(C)C [Hc3] (H-KFFKRLLKSVRRAVKKF-NH2)
MIC B. subtilis [1]: 9.38 µg/mL (≈ 4.36 µM) | MIC C. albican [2]: 9.38 µg/mL (≈ 4.36 µM) | MIC E. coli 08040726 [3]: 37.5 µg/mL (≈ 17.4 µM) | MIC E. coli [4]: 18.75 µg/mL (≈ 8.72 µM) | MIC P. aeruginosa [5]: 9.38 µg/mL (≈ 4.36 µM) | MIC P. mirabilis [6]: 4.68 µg/mL (≈ 2.18 µM) | MIC S. aureus [7]: 9.38 µg/mL (≈ 4.36 µM) | MIC S. dysenteria [8]: 2.34 µg/mL (≈ 1.09 µM) | MIC Aeromonas veronii [9]: 9.38 µg/mL (≈ 4.36 µM) | MIC Bacillus subtilis 08042313 [10]: 9.38 µg/mL (≈ 4.36 µM) | MIC Candida albicans 08030102 [11]: 9.38 µg/mL (≈ 4.36 µM) | MIC E. Coli 08032823 [12]: 9.38 µg/mL (≈ 4.36 µM) | MIC Enterococcus faecium 08052315 [13]: 9.38 µg/mL (≈ 4.36 µM) | MIC Escherichia coli ATCC25922 [14]: 18.75 µg/mL (≈ 8.72 µM) | MIC K. Pneumoniae 08031012 [15]: 75 µg/mL (≈ 34.9 µM) | MIC K. Pneumoniae 08040202 [16]: 75 µg/mL (≈ 34.9 µM) | MIC Nocardia asteroides 08052412 [17]: 4.69 µg/mL (≈ 2.18 µM) | MIC P. Aeruginosa 08021015 [18]: 9.38 µg/mL (≈ 4.36 µM) | MIC Proteus mirabilis 1376 [19]: 4.68 µg/mL (≈ 2.18 µM) | MIC S. Aureus 08032615 [20]: 9.38 µg/mL (≈ 4.36 µM) | MIC S. Aureus 08032706 [21]: 75 µg/mL (≈ 34.9 µM) | MIC S. Aureus 08032810 [22]: 75 µg/mL (≈ 34.9 µM) | MIC S. Maltophilia 090223 [23]: 9.38 µg/mL (≈ 4.36 µM) | MIC Shigella dysenteriae 0804203 [24]: 2.34 µg/mL (≈ 1.09 µM) | MIC Vibrio harveyi [25]: 18.75 µg/mL (≈ 8.72 µM) | degradation by trypsin [26]: the majority of which was rapidly digested | bactericidal ability after incubation with human serum ([27]; 3 h): dropped more than half | kill (%) after incubation with human serum ([27]; 6 h): almost diminished | kill (%) / antimicrobial activity kept after incubation with human serum ([27]; 36 h): lost its bacterial inhibitory activity | antimicrobial activity after treatment with trypsin or proteinase K [28]: almost lost its bactericidal ability

C[C@@H]1[C@H](O)[C@@H](C)/C=C/C=C/C=C/C=C/C=C/C=C/C=C/[C@H](O[C@@H]2O[C@H](C)[C@@H](O)[C@H](N)[C@@H]2O)C[C@@H]2O[C@](O)(C[C@@H](O)C[C@@H](O)[C@H](O)CC[C@@H](O)C[C@@H](O)CC(=O)O[C@H]1C)C[C@H](O)[C@H]2C(=O)O [amphotericin B, reference compound]
inhibition at 4 µg/mL [29]: 25% | damage of established C. albicans biofilm [30]: remained intact
